Values quoted from earlier work in patent publication US20240139231A1, “METFORMIN COMPOSITIONS AND METHODS FOR TREATMENT OF DIABETES” (priority 2018, published 2024).

Tests used:
[1] = 500 mg/day co-administered with metformin, 12 weeks

O=C1O[C@H]([C@@H](O)CO)C(O)=C1O [ascorbic acid]
reduction of blood sugar levels, HbA1c measure, relative to metformin in combination with a placebo (type 2 diabetes mellitus; [1]): 1.5% | reduction of blood sugar levels, fasting measure, relative to metformin in combination with a placebo (type 2 diabetes mellitus; [1]): 7% | reduction of blood sugar levels, post-prandial measure, relative to metformin in combination with a placebo (type 2 diabetes mellitus; [1]): ca. 3% | effect on blood sugar when co-administered in lower amounts (type 2 diabetes mellitus; lower amounts, earlier reports by others): no effect

CN(C)C(=N)NC(=N)N [metformin, Metformin]
time to maximum effect (blood glucose levels; depending on the dose): within four to five days | low threshold dose at which effects on blood glucose levels become significant (blood glucose levels; in vivo): 1,500 mg/day | time until effects begin to appear after the user starts taking the medication (blood glucose levels; in vivo): ≤ 48 h
